Results: publication PMC5522084, “Eg5 inhibitor YL001 induces mitotic arrest and inhibits tumor proliferation” (Oncotarget, 2017)

Columns and labels:
Eg5 motor domain = target: T1, Eg5 motor domain (Homo sapiens, UniProt P52732); assay: SPR assay (Biacore T200); format: binding; conditions: for Binding Level (RU): SPR screening
T1 sequence (P52732 18-359 limits assumed): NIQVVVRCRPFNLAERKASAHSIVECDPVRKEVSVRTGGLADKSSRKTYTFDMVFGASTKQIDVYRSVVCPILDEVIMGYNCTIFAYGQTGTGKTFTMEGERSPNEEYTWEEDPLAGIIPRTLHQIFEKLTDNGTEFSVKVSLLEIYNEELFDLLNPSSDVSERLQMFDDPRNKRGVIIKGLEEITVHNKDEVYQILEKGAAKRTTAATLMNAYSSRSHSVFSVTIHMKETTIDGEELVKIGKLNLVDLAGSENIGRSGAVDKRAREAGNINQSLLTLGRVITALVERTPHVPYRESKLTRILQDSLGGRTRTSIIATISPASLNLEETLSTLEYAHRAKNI
Protocol: Interactions of the Eg5 motor domain and compounds of interest were analyzed using the Biacore T200 system (GE Healthcare, Uppsala, Sweden) at 25°C. Eg5 motor protein obtained as previously described (51) was immobilized on a sensor chip (CM5) using an amine coupling kit (GE Healthcare, Buckinghamshire, UK). […] For binding studies, analytes were applied at corresponding concentrations in running buffer at a flow rate of 30 μL/minute with a contact time of 60 seconds and a dissociation time of 60 seconds. Chip platforms were washed with running buffer and 50% DMSO. Data were analyzed with Biacore evaluation software (T200 Version 1.0) by curve fitting using a steady state 1:1 binding model and a kinetic model.

human cancer cell lines = assay: Antiproliferation screening of 23 selected compounds (Alamar Blue); format: cell-based; conditions: proliferation inhibition
Protocol: (§1) Cytotoxic activities of the compounds of interest were investigated with human cancer cell lines using the Alamar Blue assay. Cells (5 × 10^3 cells/well) were seeded into 96-well plates (Corning, 3603). Various sample concentrations (compounds of interest) were added to each well in duplicate, and incubated at 37°C with 5% CO2 for two days such that cells were in the exponential growth phase at the time of drug addition. Ten microliters of the Alamar Blue Solution (Invitrogen, Alamar Blue) were added to each well and incubated at 37°C for up to 2 hours in a humidified, 5% CO2 atmosphere. After incubation, florescence was measured using a microplate reader (Tecan) at an excitation wavelength of 540 nm and emission of 590 nm. Each inhibitory concentration was measured in triplicate, and averaged data points ± SD are shown. Statistical analysis was carried out with GraphPad Prism 5 and the fifty-percent effective concentration is expressed as EC50.

HeLa = assay: Antiproliferation assay (Alamar Blue), HeLa; format: cell-based; conditions: Homo sapiens, 48 h, HeLa cell line, two days
Protocol: as §1

Eg5 = Eg5 (Homo sapiens, UniProt P52732); assay: Inhibition of Eg5 ATPase activity; format: biochemical; conditions: read-out: Enzyme EC50
Protocol: All experiments were performed as previously described. Data were analyzed using GraphPad Prism 5 and Microsoft Excel to obtain EC50 values. […] Each inhibitory concentration was measured in triplicate, and averaged data points ± SD are shown.

HeLa cells = assay: Colony formation; format: cell-based; conditions: Homo sapiens, exposed 24 hours, cultured 10 days
Protocol: HeLa cells (5 × 10^2 cells/well) were seeded into 6-well plates and were treated with a series of gradient concentrations of YL001 for 24 hours, followed by washing and continual culture for 10 days. DMSO was used as a negative control, and STLC was used as a positive control. Cells were fixed with ethanol for more than 30 minutes and dyed with crystal violet for more than 30 minutes. Clones were counted with OpenCFU [54].

Eg5, sequence (P52732 whole entry): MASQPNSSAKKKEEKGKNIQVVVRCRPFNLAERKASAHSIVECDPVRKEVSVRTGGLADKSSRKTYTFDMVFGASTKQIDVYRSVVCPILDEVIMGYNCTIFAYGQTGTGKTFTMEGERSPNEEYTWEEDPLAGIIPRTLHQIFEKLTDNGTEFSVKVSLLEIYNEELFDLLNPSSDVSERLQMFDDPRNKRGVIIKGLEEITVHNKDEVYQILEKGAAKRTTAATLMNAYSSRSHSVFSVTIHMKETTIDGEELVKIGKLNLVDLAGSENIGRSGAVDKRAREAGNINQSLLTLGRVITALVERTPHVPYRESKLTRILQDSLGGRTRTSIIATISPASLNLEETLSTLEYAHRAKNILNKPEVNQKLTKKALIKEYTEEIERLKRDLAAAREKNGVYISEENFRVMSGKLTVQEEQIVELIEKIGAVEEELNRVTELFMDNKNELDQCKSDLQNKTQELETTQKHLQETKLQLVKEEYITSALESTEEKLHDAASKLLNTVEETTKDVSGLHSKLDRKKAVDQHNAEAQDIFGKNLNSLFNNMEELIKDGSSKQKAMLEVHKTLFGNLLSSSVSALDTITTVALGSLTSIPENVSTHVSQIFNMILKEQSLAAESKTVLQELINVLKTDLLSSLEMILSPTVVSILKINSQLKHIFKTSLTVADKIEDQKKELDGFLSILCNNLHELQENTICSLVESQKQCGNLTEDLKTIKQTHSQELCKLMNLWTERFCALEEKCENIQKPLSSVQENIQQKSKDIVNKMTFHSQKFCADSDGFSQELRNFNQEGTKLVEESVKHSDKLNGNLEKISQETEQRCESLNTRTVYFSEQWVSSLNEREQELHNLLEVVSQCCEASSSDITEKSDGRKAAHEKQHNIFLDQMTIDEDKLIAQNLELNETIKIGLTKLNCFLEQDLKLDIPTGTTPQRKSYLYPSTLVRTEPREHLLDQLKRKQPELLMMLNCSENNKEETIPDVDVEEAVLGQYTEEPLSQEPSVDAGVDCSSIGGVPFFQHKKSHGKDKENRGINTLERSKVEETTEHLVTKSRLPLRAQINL

For CC1(C)CC(=O)C2=C(C1)OC(N)=C(C#N)C21C(=O)N(Cc2ccccc2Cl)c2ccccc21 (stereo not drawn) [AM-807/14957480], the “Binding Level (RU)” value (Eg5 motor domain) was 16.3 RU and the “Inhibition (50 μM)” value (human cancer cell lines) was 30.76%.
For CCOC(=O)C1=CN2C(C=C1)C(C(=C(C#N)C#N)C1CC1)C(c1ccccc1)C2C(=O)c1ccccc1 (stereo not drawn) [AG-205/33162003], the “Binding Level (RU)” value (Eg5 motor domain) was 32.8 RU and the “Inhibition (50 μM)” value (human cancer cell lines) was 60.89%.
Cc1ccc(SC(c2ccccc2)C(Cn2cncn2)C(=O)c2ccc(Br)cc2)cc1 (stereo not drawn) [AQ-714/41675002] was tested, and the “Binding Level (RU)” value (Eg5 motor domain) was 2.3 RU and the “Inhibition (50 μM)” value (human cancer cell lines) was 32.65%.
For OC(COCc1ccc2c(c1)OCO2)CN1CCN(C(c2ccccc2)c2ccccc2)CC1 (stereo not drawn) [AF-399/14739190], the “Binding Level (RU)” value (Eg5 motor domain) was 36.9 RU and the “Inhibition (50 μM)” value (human cancer cell lines) was 22.02%.
CC(=O)C1=NN(c2ccc(C)cc2)C(c2c[nH]c3ccccc23)N1c1ccc(C)cc1 (stereo not drawn) [AN-465/13570058] was tested, and the “Binding Level (RU)” value (Eg5 motor domain) was 7.4 RU and the “Inhibition (50 μM)” value (human cancer cell lines) was 98.24%.
With Cc1ccc(N2C(=N)/C(=C(/O)c3ccccc3)C(c3ccc([N+](=O)[O-])cc3)C3=C2CCCC3=O)cc1Cl (stereo not drawn) [AN-919/14545008] the “Binding Level (RU)” value (Eg5 motor domain) was 57.7 RU and the “Inhibition (50 μM)” value (human cancer cell lines) was 26.79%.
With CC(=O)Nc1sc2c(c1C(c1ccc(OC(F)F)cc1)N1CCOCC1)CCCC2 (stereo not drawn) [AF-399/41981012] the “Binding Level (RU)” value (Eg5 motor domain) was 3.8 RU and the “Inhibition (50 μM)” value (human cancer cell lines) was 14.85%.
In the case of O=[N+]([O-])c1ccc(COc2ccccc2C2N(Cc3ccccc3)CCN2Cc2ccccc2)cc1 [AG-205/14740101], the “Binding Level (RU)” value (Eg5 motor domain) is reported as 27.7 RU and the “Inhibition (50 μM)” value (human cancer cell lines) is reported as 0.87%.
For Cc1ccc(-n2nnnc2/C(=C/N(C)C)C(=O)c2cccc(C(F)(F)F)c2)cc1 [AG-401/37257005], the “Binding Level (RU)” value (Eg5 motor domain) was 18.8 RU and the “Inhibition (50 μM)” value (human cancer cell lines) was 95.06%.
With Cc1ccc(N=C2S/C(=C/c3ccccc3OCC(=O)N3CCOCC3)C(=O)N2Cc2ccccc2)cc1 [AO-081/41364431] the “Binding Level (RU)” value (Eg5 motor domain) was 56.4 RU and the “Inhibition (50 μM)” value (human cancer cell lines) was 29.79%.
With N=C1/C(=C(/O)c2ccccc2)C(c2ccccc2)C2=C(CCCC2=O)N1c1ccc(Br)cc1 (stereo not drawn) [AN-919/14547075] the “Binding Level (RU)” value (Eg5 motor domain) was 69.6 RU and the “Inhibition (50 μM)” value (human cancer cell lines) was 27.56%.
With CCc1cc(C(c2ccccc2F)N2CCOCC2)c(NC(=O)c2ccccc2)s1 (stereo not drawn) [AP-906/42853823] the “Binding Level (RU)” value (Eg5 motor domain) was 60.7 RU and the “Inhibition (50 μM)” value (human cancer cell lines) was 19.16%.
In the case of COc1ccc(C(OCC2OC(n3cnc4c(N)ncnc43)C(O)C2O)(c2ccccc2)c2ccccc2)cc1 (stereo not drawn) [Compound 7170], the EC50 (HeLa) is reported as 13.3 ± 1.32 µM, the Kd (Eg5 motor domain; SPR Biacore T200, 25°C) is reported as 1.13 µM and the EC50 (Eg5) is reported as 18 µM.
Cc1ccc(/C(O)=C2\C(=N)N(c3ccccc3)C3=C(C(=O)CCC3)C2c2ccccc2)cc1 (stereo not drawn) [AN-919/14547078] was tested, and the “Binding Level (RU)” value (Eg5 motor domain) was 56.6 RU and the “Inhibition (50 μM)” value (human cancer cell lines) was 30.07%.
For Cc1ccc(C2C3=C(CCCC3=O)N(c3ccc(Br)cc3)C(=N)/C2=C(/O)c2ccccc2)cc1 (stereo not drawn) [AN-919/14547113], the “Binding Level (RU)” value (Eg5 motor domain) was 1.9 RU and the “Inhibition (50 μM)” value (human cancer cell lines) was 21.56%.
CN(C)CCN1C(=O)C(=O)/C(=C(/O)c2ccccc2)C1c1ccc2c(c1)OCO2 (stereo not drawn) [AG-205/13765047] was tested, and the “Binding Level (RU)” value (Eg5 motor domain) was 3.4 RU and the “Inhibition (50 μM)” value (human cancer cell lines) was “–18.48%”.
For Cn1cc(C2C(=O)NC(c3ccccc3)=NN2C(=O)c2ccccc2)c2ccccc21 (stereo not drawn) [AG-227/37394007], the “Binding Level (RU)” value (Eg5 motor domain) was 8.7 RU and the “Inhibition (50 μM)” value (human cancer cell lines) was 97.78%.
NC1=C(C(=O)OCc2ccccc2)C2(C(=O)Nc3ccc(Br)cc32)C2=C(CCCC2=O)O1 (stereo not drawn) [AK-777/10805059] was tested, and the “Binding Level (RU)” value (Eg5 motor domain) was 20.7 RU and the “Inhibition (50 μM)” value (human cancer cell lines) was 31.51%.
COC(=O)CN1C(c2ccccc2)=Nc2ccc(Br)cc2C1c1ccccc1 (stereo not drawn) [AG-690/36921098] was tested, and the “Binding Level (RU)” value (Eg5 motor domain) was 61.1 RU and the “Inhibition (50 μM)” value (human cancer cell lines) was 21.81%.
For CC(=O)C1=NN(c2ccc(Cl)cc2)C(c2ccc3c(c2)OCO3)N1c1ccccc1 (stereo not drawn) [AK-778/11811129], the “Binding Level (RU)” value (Eg5 motor domain) was 59.8 RU and the “Inhibition (50 μM)” value (human cancer cell lines) was 9.38%.
In the case of CCOC(=O)C1C2c3ccccc3C(c3ccccc32)C1C(=O)OCC (stereo not drawn) [AE-842/33003047], the “Binding Level (RU)” value (Eg5 motor domain) is reported as 14.6 RU and the “Inhibition (50 μM)” value (human cancer cell lines) is reported as “–30.66%”.
Compound N[C@@H](CSC(c1ccccc1)(c1ccccc1)c1ccccc1)C(=O)O [STLC, S-Trityl-L-cysteine, reference compound] has an EC50 (HeLa) of 1.46 ± 0.06 µM and an IC50 (HeLa cells) of 1.25 µM.
In the case of COC(=O)C1NC(c2ccc(F)cc2)(c2ccc(F)cc2)C2C(=O)N(c3ccc(Cl)cc3)C(=O)C12 (stereo not drawn) [AH-487/42271989], the “Binding Level (RU)” value (Eg5 motor domain) is reported as 31.9 RU and the “Inhibition (50 μM)” value (human cancer cell lines) is reported as 41.63%.
For N#CC1=C(N)Oc2n[nH]c(-c3cccc4ccccc34)c2C1c1cccc(O)c1 (stereo not drawn) [AJ-292/15089069], the “Binding Level (RU)” value (Eg5 motor domain) was 100.1 RU and the “Inhibition (50 μM)” value (human cancer cell lines) was 58.97%.
In the case of Cc1ccc(N2C(=O)CSC23C(=O)N(CN2CCN(c4ccccc4)CC2)c2ccccc23)cc1C (stereo not drawn) [AG-205/13460017], the “Binding Level (RU)” value (Eg5 motor domain) is reported as 44.5 RU and the “Inhibition (50 μM)” value (human cancer cell lines) is reported as 30.78%.
